US20140357512A1, “HISTONE DEACETYLASE (HDAC) BIOMARKERS IN MULTIPLE MYELOMA” (priority 2013, published 2014)

Test system: human myeloma cell line MM.1S
Experiment: SILAC acetylated-lysine peptide profiling, HDAC inhibitor vs DMSO (light/heavy ratio)
Assay type: cell-based
From the text: An embodiment of the invention comprises utilizing the SILAC method in order to quantitate changes in protein expression between two or more populations of cells. The SILAC method is a technique based on mass spectrometry that detects differences in protein abundance among samples using non-radioactive isotopic labeling. The SILAC method is known in the art, and described in detail in Ong et al., “Stable Isotope Labeling by Amino Acids in Cell Culture, SILAC, as a Simple and Accurate Approach to Expression Proteomics”, Molecular & Cellular Proteomics, vol. 1, pp. 376-386 (2002), which is incorporated herein by reference in its entirety.
Briefly, the SILAC method involves growing two populations of cells in cell culture. The first population of cells is grown in growth media containing normal amino acids (“normal media”). The second population of cells is grown in media lacking a standard essential amino acid (such as lysine), but is then supplemented with a non-radioactive, isotopically labeled form of that essential amino acid (such as lysine labeled with ^13C atoms, rather than normal ^12C atoms), which is called “heavy media”. When the two populations of cells are each growing in the medium, they incorporate the amino acids into all of their proteins. The growth of cells maintained in the heavy media is no different from that in normal media. All peptides containing the heavy amino acids are heavier than their normal counterparts. The cells from each of the two populations of cells are lysed. The lysates from each of the two cell populations are then combined. The combined cell lysates are then analyzed by mass spectrometry. Pairs of chemically identical peptides of different stable isotope composition can be differentiated in a mass spectrometer due to their difference in mass. The ratio of peak intensities in the mass spectrum for such peptide pairs reflects the abundance ratio for the two proteins.
This example describes SILAC studies that were performed to compare the effects of three different HDAC inhibitors (Compound A, Compound B, and tubastatin A) to a control on a human multiple myeloma cell line. The HDAC inhibitors were also compared amongst themselves to determine differences in their effects.
A human myeloma cell line MM.1S was grown using either ^12C (light) or ^13C (heavy) lysine containing culture medium. The “heavy” cells were treated with DMSO as the control, and the “light” cells were treated with a single HDAC inhibitor at 37° C. for 6 hours. The heavy and light cells were lysed, and the lysates were mixed in 1:1 ratio and digested with the protease trypsin. The acetylated lysine containing peptides (due to the action of the HDAC inhibitor) in the digested peptide pool were captured by a non-specific anti-acetylated lysine antibody cocktail (the antibodies identify both light and heavy acetylated peptides), and subjected to mass spectrometry analysis in order to identify thousands of individual peptides.
Thousands of peptides were identified in pairs (^12C and ^13C) due to their known mass differences. The amino acid sequence and quantitative ratio (Light/Heavy) of a given peptide in two differentially treated cell lysates were then determined and annotated with their possible protein (gene) sources.
As stated above, three HDAC inhibitors (Compound A, Compound B, and Tubastatin A) were used. Thus, the SILAC method was performed three times, with a different HDAC inhibitor compared to a control each time. Accordingly, there are three pairs of quantitative data in the table below, i.e., Compound A:DMSO, Compound B:DMSO, and Tubastatin A:DMSO. A cut-off of 1.30 fold of change (increase or decrease) was then used to determine “changed” or “+” in the table, and any peptides with a fold of change less than 1.3 fold were determined to be “unchanged” or “0” in the table. Those peptides that were not identified were marked as “NA” in the table. […]

O=C(CCCCCCNC(=O)c1cnc(N(c2ccccc2)c2ccccc2)nc1)NO [Compound A, 2-(diphenylamino)-N-(7-(hydroxyamino)-7-oxoheptyl)pyrimidine-5-carboxamide]
light to heavy ratio (L/H ratio) of acetylated peptide VVK(ac)QASEGPLK (SEQ ID NO: 597) (Glyceraldehyde-3-phosphate dehydrogenase [263], gene GAPDH, inhibitor:DMSO): 0.45 log 2 | light to heavy ratio (L/H ratio) of acetylated peptide AHLQK(ac)LMSDK (SEQ ID NO: 549) (Glycyl-tRNA synthetase [224], gene GARS, inhibitor:DMSO): 0.39 log 2 | light to heavy ratio (L/H ratio), log 2 scale, acetylated peptide LLLLGAGESGK(ac)STIVK (SEQ ID NO: 769) (Guanine nucleotide-binding protein G(olf) subunit alpha [55], gene GNAL, drug:DMSO): 0.97 | L/H ratio of acetylated peptide AGGK(ac)AGK(ac)DSGK (SEQ ID NO: 15) (H2AFV [5:8], log 2 scale, drug vs DMSO): 1.00 | light to heavy ratio (L/H ratio) of acetylated peptide TLAMDVMK(ac)PR (SEQ ID NO: 501) (H(+)/CI(−) exchange transporter 5 [587], gene CLCN5, inhibitor:DMSO): −0.76 log 2 | light to heavy ratio (L/H ratio) of acetylated peptide FSPDDK(ac)YSR (SEQ ID NO: 504) (H/ACA ribonucleoprotein complex subunit 3 [40], gene NOP10, inhibitor:DMSO): −0.68 log 2 | L/H ratio of acetylated peptide GQQQVFK(ac)GLNDK (SEQ ID NO: 41) (HADHA [406], log 2 scale, drug vs DMSO): 0.00 | L/H ratio of acetylated peptide (HGMK(ac)VVLISR (SEQ ID NO: 494), Estradiol 17-beta-dehydrogenase 12 [76], HSD17B12): −1.00 log 2 | L/H ratio of acetylated peptide PDPAK(ac)SAPAPK(ac)K (SEQ ID NO: 16) (HIST1H2BO [6:12], log 2 scale, drug vs DMSO): 1.00 | light to heavy ratio (L/H ratio) of acetylated peptide SLNLK(ac)HIK (SEQ ID NO: 607) (HLA-B associated transcript 1 [188], gene SNORD84, DDX39B, inhibitor:DMSO): 0.46 log 2 | L/H ratio of acetylated peptide K(ac)[…] (SEQ ID NO: 42) (HMGB2 [30], log 2 scale, drug vs DMSO): 0.00 | L/H ratio of acetylated peptide RGEEGHDPK(ac)EPEQLR (SEQ ID NO: 43) (HNRNPA3 [29], log 2 scale, drug vs DMSO): 0.00 | L/H ratio of acetylated peptide […](ac)WQSLK (SEQ ID NO: 44) (HNRNPM [83], log 2 scale, drug vs DMSO): 0.00 | L/H ratio of acetylated peptide AAEVLNK(ac)HSLSGRPLK (SEQ ID NO: 3) (HNRNPM [134], log 2 scale, drug vs DMSO): 0.00 | L/H ratio of acetylated peptide VK(ac)VLFVR (SEQ ID NO: 45) (HNRNPR [341], log 2 scale, drug vs DMSO): 0.00 | L/H ratio of acetylated peptide […](ac)YSR (SEQ ID NO: 46) (HNRNPU [246], log 2 scale, drug vs DMSO): 0.00 | L/H ratio of acetylated peptide TTWVTK(ac)HAAENPGK (SEQ ID NO: 47) (HNRNPU [497], log 2 scale, drug vs DMSO): 0.00 | L/H ratio of acetylated peptide NK(ac)EIFLR (SEQ ID NO: 52) (HSP90B1 [97], log 2 scale, drug vs DMSO): 0.00 | L/H ratio of acetylated peptide […](ac)IR (SEQ ID NO: 49) (HSP90B1 [114], log 2 scale, drug vs DMSO): 0.00 | L/H ratio of acetylated peptide EELVK(ac)NLGTIAK (SEQ ID NO: 48) (HSP90B1 [161], log 2 scale, drug vs DMSO): 0.00 | L/H ratio of acetylated peptide ETLQQHK(ac)LLK (SEQ ID NO: 50) (HSP90B1 [455], log 2 scale, drug vs DMSO): 0.00 | L/H ratio of acetylated peptide IADDK(ac)YNDTFWK (SEQ ID NO: 51) (HSP90B1 [479], log 2 scale, drug vs DMSO): 0.00 | L/H ratio of acetylated peptide […](ac)R (SEQ ID NO: 54) (HSPA5 [96], log 2 scale, drug vs DMSO): 0.00 | L/H ratio of acetylated peptide […](ac)R (SEQ ID NO: 53) (HSPA5 [213], log 2 scale, drug vs DMSO): 0.00 | L/H ratio of acetylated peptide […](ac)R (SEQ ID NO: 55) (HSPA8 [71], log 2 scale, drug vs DMSO): 0.00 | light to heavy ratio (L/H ratio) of acetylated peptide […](ac)R (SEQ ID NO: 267) (Heat shock 70 kDa protein 1A/1B [71], HSPA1B, HSPA1A, drug:DMSO): 0.44 log 2 | light to heavy ratio (L/H ratio), log 2 scale, acetylated peptide TEMDWVLK(ac)[…] (SEQ ID NO: 797) (Heterogeneous nuclear ribonucleoprotein F [98], gene HNRNPF, drug:DMSO): 1.00 | light to heavy ratio (L/H ratio) of acetylated peptide LLLFK(ac)TFSR (SEQ ID NO: 514) (Heterogeneous nuclear ribonucleoprotein U-like protein 2 [553], gene HNRNPUL2, inhibitor:DMSO): −0.57 log 2 | light to heavy ratio (L/H ratio) of acetylated peptide YEK(ac)DIAAYR (SEQ ID NO: 595) (High mobility group protein B2 [157], gene HMGB2, inhibitor:DMSO): 0.45 log 2 | light to heavy ratio (L/H ratio), log 2 scale, acetylated peptide AGK(ac)DSGK(ac)AK (SEQ ID NO: 786) (Histone H2A.V [8:12], gene H2AFV, drug:DMSO): 1.00 | light to heavy ratio (L/H ratio), log 2 scale, acetylated peptide GSK(ac)K(ac)AITK (SEQ ID NO: 790) (Histone H2B type 1-B [16:17], gene HIST1H2BB, drug:DMSO): 1.00 | light to heavy ratio (L/H ratio), log 2 scale, acetylated peptide PEPTK(ac)SAPAPK(ac)K (SEQ ID NO: 791) (Histone H2B type 1-D [6:12], gene HIST1H2BD, drug:DMSO): 1.00 | light to heavy ratio (L/H ratio), log 2 scale, acetylated peptide GSK(ac)K(ac)AINK (SEQ ID NO: 792) (Histone H2B type 1-M [16:17], gene HIST1H2BM, drug:DMSO): 1.00 | light to heavy ratio (L/H ratio), log 2 scale, acetylated peptide K(ac)AINK(ac)AQK (SEQ ID NO: 793) (Histone H2B type 1-M [17:21], gene HIST1H2BM, drug:DMSO): 1.00 | light to heavy ratio (L/H ratio) of acetylated peptide PEPAK(ac)SAPAPK(ac)K (SEQ ID NO: 309) (Histone H2B type 2-E [6:12], HIST2H2BE, drug:DMSO): 1.00 log 2
